Laboratory results taken from patent publication US8338565B2, “Macrocyclic compounds for inhibition of tumor necrosis factor alpha” (Ensemble Therapeutics Corporation, priority 2008, dated 2012).
Like-named read-outs stand apart in the source and are kept apart here. Bridge positions count the residues as written; N and C are the ends. Square brackets hold non-standard residues; d marks the D form. Peptide text beside a SMILES is read from it. Phe(4-COOH) = N[C@@H](Cc1ccc(C(=O)O)cc1)C(=O)O; Bip = N[C@@H](Cc1ccc(-c2ccccc2)cc1)C(=O)O; d(hPhe) = N[C@H](CCc1ccccc1)C(=O)O; βAla = NCCC(=O)O

How the values were obtained:
[1] = biological target: T1, TNFα / TNFα receptor (TNFα R1/Fc) (Homo sapiens, UniProt P01375); test: Inhibition of binding of TNFα to the TNFα receptor (plate ELISA competition); conditions: Table 2
T1 construct: purchased R&D Systems
T1 sequence (P01375 77-233 limits assumed, species assumed): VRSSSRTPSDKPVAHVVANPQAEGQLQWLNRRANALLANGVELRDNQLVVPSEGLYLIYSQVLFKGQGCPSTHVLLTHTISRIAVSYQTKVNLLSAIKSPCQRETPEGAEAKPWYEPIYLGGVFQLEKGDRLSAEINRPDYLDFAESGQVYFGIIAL
Summary of the method: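 Plates were coated with TNFα at 15 nM. Test compound and 8.33 nM receptor-Fc (PBST, 2% DMSO) were first mixed in solution for 30 min at room temperature, then transferred to the plates for another 30 min. Competition was read by absorbance at 450 nm after HRP anti-human IgG Fc detection with TMB.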

[2] = tested on: TNF-α (degradation of IkB in HeLa cells or A431 cells); test: Human cell-based assay: inhibition of TNF-α induced degradation of IkB; conditions: for inhibition at 5 µM: read-out: Inhibition at Various Compound Concentrations, 5 μM; for inhibition at 10 µM: read-out: Inhibition at Various Compound Concentrations, 10 μM
Method: We used a human cell-based assay to determine the TNF-α antagonistic activity of the compounds of this invention based upon the ability of the compounds to inhibit the degradation of IkB in those cells. The assay was performed on either HeLa cells or A431 cells.
On Day 1, wells of a 24-well tissue culture plate were seeded with cells that had been harvested from cultures in T-75 flasks by standard trypsin/EDTA treatment. The harvested cells were suspended in EMEM/10% FBS/P/S (100,000 HeLa cells/mL or 200,000 A431 cells/mL) and 1 mL aliquots were placed into each well. The cells were incubated overnight at 37° C. in a humidified CO2 incubator. On day 2, the cells were approximately 95% confluent.
Test and control compounds were diluted to a 1 mM solution by dilution in DMSO. The assay was run in Costar tubes. Into each tube was placed 2.5 or 5.0 μL of test compound (for testing 5 μM and 10 μM concentrations, respectively), 2.5 μL of 100× TNF-α solution (200 ng/mL TNF-α in EMEM containing 1μg/mL cycloheximide) and, for those tubes containing 2.5 μL of compound, an additional 2.5 μL of DMSO. To each tube was then added 0.5 mL of EMEM containing 1μg/mL cycloheximide. Negative control tubes contained either a) no compound, or b) no TNF-α. Tubes were then incubated for 30 minutes at room temperature.
Once incubation had begun, the media was aspirated from the cells in the 24-well plates. Sufficient EMEM/10% FBS/P/S containing 1 ug/mL cycloheximide was then added to cover the cells (approximately 3 mL) and the cells were retuned to the 37° C. humidified CO2 incubator until compound incubation was completed. The media was then aspirated from the cells, 0.2 mL of the compound solution was added and the cells re-incubated at 37° C. for 30 minutes. The plates were then placed on ice, the compound solution was aspirated from each well, and the cells washed once with 1 mL of cold PBS. Cells were then fixed with 500 μL of 3.7% formaldehyde in PBS (“fix solution”) for 20 minutes at room temperature. The fix solution was decanted and the cells permeabilized by 4× washing with 500 uL PBS/0.1% Triton X-100. After the final permeabilization wash, the cells were treated with 500 uL of Odyssey blocking buffer (OBB) and incubated at room temperature with shaking for 90 minutes.
The OBB was decanted and then to each well was then added 125 μL each of mouse anti-IkB CST#4814 (diluted 1:200 in OBB) and rabbit anti-beta-tubulin CST#2146 (diluted 1:200 in OBB). Plates were sealed with parafin and incubated overnight at room temperature with shaking.
On day 3, the antibody solution was removed from the cells and the cells were washed 5× with 0.5 mL PBST for five minutes each on a shaker. To each well was then aded 125 μL of a secondary antibody solution containing goat anti-mouse IgG-IRDye 800 and goat anti-rabbit IgG-IRDye (each diluted 1:500 in OBB+0.2% Tween 20). The plates were covered with aluminum foil and incubated for 1 hour at room temperature with shaking. The secondary antibody solution was removed and the cells washed 3× with 0.5 mL PBST for five minutes each on a shaker. Cells were then scanned by LICOR with the following settings: 700 intensity=6.0, 800 intensity=6.5; microplate2 settings with 3.0 mm offset; 169 resolution. LICOR values were fitted to an equation for a sigmoidal curve and IC50 values calculated from the fitted parameters. […] Blank cells indicate that the compound was not tested at that concentration. Certain compounds that were tested more than once and the values reflect the average of the multiple tests.

[3] = read-out: Activity (IC50, inhibition of TNFα binding to TNFα R1/Fc)
[4] = 5 μM compound, HeLa or A431 cells
[5] = 10 μM compound, HeLa or A431 cells
[6] = Activity (IC50, inhibition of TNFα binding to TNFα R1/Fc)

Row | SMILES | IC50 [1, 3] | inhibition at 5 µM [2, 4] | inhibition at 10 µM [2, 5] | IC50 [1, 6] | inhibition at 5 µM [2] | inhibition at 10 µM [2]
1 | O=C1CCNC(=O)c2ccc(cc2)C[C@@H](C(=O)O)NC(=O)[C@@H](Cc2ccccc2)NC(=O)[C@H](Cc2ccc(-c3ccccc3)cc2)NC(=O)[C@@H](CCc2ccccc2)N1 [Compound 248] ([βAla][d(hPhe)][Bip][dF][Phe(4-COOH)]-OH; lactam N-5) | < 10 µM | < 10% | 10 to 50% | – | – | –
2 | O=C(O)[C@H](Cc1ccccc1)NC(=O)[C@@H]1Cc2ccc(cc2)NC(=O)[C@H](O)[C@@H](O)C(=O)N[C@H](Cc2ccc(F)c(F)c2)C(=O)N[C@@H](Cc2ccc(-c3ccccc3)cc2)C(=O)N[C@H](Cc2ccccc2)C(=O)N1 [Compound 282] | < 10 µM | 50 to 80% | 10 to 50% | – | – | –
3 | O=C(O)[C@@H]1Cc2ccc(cc2)NC(=O)[C@H](O)[C@@H](O)C(=O)N[C@H](Cc2cccs2)C(=O)N[C@@H](Cc2ccc(-c3ccccc3)cc2)C(=O)N[C@H](CCc2ccccc2)C(=O)N1 [Compound 289] | < 10 µM | < 10% | < 10% | – | – | –
4 | O=C(O)[C@@H]1Cc2ccc(cc2)NC(=O)[C@H](O)[C@@H](O)C(=O)N[C@H](Cc2cccs2)C(=O)N[C@@H](Cc2ccc(-c3ccccc3)cc2)C(=O)N[C@@H](CCc2ccccc2)C(=O)N1 [Compound 290] | < 10 µM | < 10% | < 10% | – | – | –
5 | CC(C)(NC(=O)[C@@H]1Cc2ccc(cc2)OCC(=O)N[C@H](Cc2cccs2)C(=O)N[C@@H](Cc2ccc(-c3ccccc3)cc2)C(=O)N[C@H](CCc2ccccc2)C(=O)N1)C(=O)O [Compound 297] | < 10 µM | < 10% | < 10% | – | – | –
6 | O=C(O)CCCNC(=O)[C@@H]1Cc2ccc(cc2)OCC(=O)N[C@H](Cc2cccs2)C(=O)N[C@@H](Cc2ccc(-c3ccccc3)cc2)C(=O)N[C@H](CCc2ccccc2)C(=O)N1 [Compound 298] | < 10 µM | < 10% | < 10% | – | – | –
7 | O=C1COc2ccc(cc2)C[C@@H](C(=O)NC2(C(=O)O)CC2)NC(=O)[C@@H](CCc2ccccc2)NC(=O)[C@H](Cc2ccc(-c3ccccc3)cc2)NC(=O)[C@@H](Cc2cccs2)N1 [Compound 299] | – | – | – | < 10 µM | < 10% | < 10%
8 | O=C1COc2ccc(cc2)C[C@@H](C(=O)N[C@@H](Cc2ccc(O)cc2)C(=O)O)NC(=O)[C@@H](CCc2ccccc2)NC(=O)[C@H](Cc2ccc(-c3ccccc3)cc2)NC(=O)[C@@H](Cc2cccs2)N1 [Compound 300] | – | – | – | < 10 µM | – | 10 to 50%
9 | O=C(O)CCNC(=O)[C@@H]1Cc2ccc(cc2)OCC(=O)N[C@H](Cc2cccs2)C(=O)N[C@@H](Cc2ccc(-c3ccccc3)cc2)C(=O)N[C@H](CCc2ccccc2)C(=O)N1 [Compound 301] | < 10 µM | < 10% | < 10% | – | – | –
10 | C[C@H](NC(=O)[C@@H]1Cc2ccc(cc2)OCC(=O)N[C@H](Cc2cccs2)C(=O)N[C@@H](Cc2ccc(-c3ccccc3)cc2)C(=O)N[C@H](CCc2ccccc2)C(=O)N1)C(=O)O [Compound 302] | < 10 µM | 10 to 50% | 10 to 50% | – | – | –
11 | C[C@@H](NC(=O)[C@@H]1Cc2ccc(cc2)OCC(=O)N[C@H](Cc2cccs2)C(=O)N[C@@H](Cc2ccc(-c3ccccc3)cc2)C(=O)N[C@H](CCc2ccccc2)C(=O)N1)C(=O)O [Compound 305] | < 10 µM | – | < 10% | – | – | –
12 | CC[C@H](C)[C@H](NC(=O)[C@@H]1Cc2ccc(cc2)OCC(=O)N[C@H](Cc2cccs2)C(=O)N[C@@H](Cc2ccc(-c3ccccc3)cc2)C(=O)N[C@H](CCc2ccccc2)C(=O)N1)C(=O)O [Compound 307] | < 10 µM | – | < 10% | – | – | –
13 | O=C(O)[C@@H]1Cc2ccc(cc2)NC(=O)[C@H](O)[C@@H](O)C(=O)N[C@H](Cc2ccccc2)C(=O)N[C@@H](Cc2ccc(-c3ccccc3)cc2)C(=O)N[C@H](Cc2ccccc2)C(=O)N1 [Compound 313] | < 10 µM | < 10% | 10 to 50% | – | – | –
14 | O=C(O)[C@@H]1Cc2ccc(cc2)NC(=O)[C@H](O)[C@@H](O)C(=O)N[C@H](Cc2ccsc2)C(=O)N[C@@H](Cc2ccc(-c3ccccc3)cc2)C(=O)N[C@H](Cc2ccccc2)C(=O)N1 [Compound 318] | < 10 µM | < 10% | 10 to 50% | – | – | –
15 | O=C(O)CCNC(=O)[C@@H]1Cc2ccc(cc2)OCC(=O)N[C@@H](Cc2cccs2)C(=O)N[C@H](Cc2ccc(-c3ccccc3)cc2)C(=O)N[C@@H](Cc2ccccc2)C(=O)N1 [Compound 319] | < 10 µM | < 10% | < 10% | – | – | –
16 | O=C1COc2ccc(cc2)C[C@@H](C(=O)N[C@@H](CCc2ccccc2)C(=O)O)NC(=O)[C@@H](CCc2ccccc2)NC(=O)[C@H](Cc2ccc(-c3ccccc3)cc2)NC(=O)[C@@H](Cc2cccs2)N1 [Compound 320] | – | – | – | < 10 µM | 10 to 50% | > 80%
17 | O=C(O)CNC(=O)[C@@H]1Cc2ccc(cc2)OCC(=O)N[C@H](Cc2cccs2)C(=O)N[C@@H](Cc2ccc(-c3ccccc3)cc2)C(=O)N[C@H](CCc2ccccc2)C(=O)N1 [Compound 321] | < 10 µM | < 10% | 10 to 50% | – | – | –
18 | O=C(O)CN(Cc1ccccc1)C(=O)[C@@H]1Cc2ccc(cc2)OCC(=O)N[C@H](Cc2cccs2)C(=O)N[C@@H](Cc2ccc(-c3ccccc3)cc2)C(=O)N[C@H](CCc2ccccc2)C(=O)N1 [Compound 323] | – | – | – | < 10 µM | 10 to 50% | 10 to 50%
19 | O=C1COc2ccc(cc2)C[C@@H](C(=O)N[C@H](Cc2ccccc2)C(=O)O)NC(=O)[C@@H](CCc2ccccc2)NC(=O)[C@H](Cc2ccc(-c3ccccc3)cc2)NC(=O)[C@@H](Cc2cccs2)N1 [Compound 324] | – | – | – | < 10 µM | 10 to 50% | 10 to 50%
20 | COC(=O)[C@H](CC(=O)O)NC(=O)[C@@H]1Cc2ccc(cc2)OCC(=O)N[C@H](Cc2cccs2)C(=O)N[C@@H](Cc2ccc(-c3ccccc3)cc2)C(=O)N[C@H](CCc2ccccc2)C(=O)N1 [Compound 325] | < 10 µM | – | < 10% | – | – | –
21 | C[C@H](NC(=O)[C@@H]1Cc2ccc(cc2)OCC(=O)N[C@@H](Cc2cccs2)C(=O)N[C@@H](Cc2ccc(-c3ccccc3)cc2)C(=O)N[C@@H](Cc2ccccc2)C(=O)N1)C(=O)O [Compound 326] | < 10 µM | 10 to 50% | 10 to 50% | – | – | –
